The text below walks through data of patent publication US10676468B2, “N-(3-heteroarylaryl)-4-arylarylcarboxamides and analogs as hedgehog pathway inhibitors and use thereof” (IMPACT Therapeutics, Inc., priority 2012, dated 2020).

SMILES strings stand for the structures. Bounds are passed on as bounds.

The subject of test [1] is Hedgehog Signaling Pathway. The experiment in a line: SAG-induced differentiation of C3H10T1/2 cells into osteoblastic cells, intracellular alkaline phosphatase activity. It counts as cell-based, mouse. Conditions: Mus musculus, C3H 10T1/2, 120 h, 1 μM SAG, 5 days, alkaline phosphatase activity (OD405), read-out: IC50 values of compounds that inhibit Hh pathway. From the text: The Application of SAG to Induce Pluripotent Mesenchymal Mouse Embryonic Cell C3H/10T1/2 to Differentiate into Osteoblastic Cells for the Determination of the Inhibitory Activity of N-(3-(1H-benzo[d]imidazol-2-yl)-4-chlorophenyl)-2-methyl-4-((2S,6R)-2,6-dimethylmorpholino)benzamide and Analogs on Hedgehog Signaling Pathway
The intracellular alkaline phosphatase activity is a reliable indication of the differentiation process. Therefore this enzymatic activity can be used to monitor the activity of hedgehog pathway inhibitors.
The C3H10T1/2 cells were grown in DMEM medium supplemented with 10% fetal bovine serum (FBS, Hyclone) at 37° C. with 5% CO2. 10000 cells were sown to each well of a 96-well microplate a day before the experiment and grown overnight. At the day of experiment, the inducing medium and inhibitor solutions were prepared as follows: the reference compound and testing compounds were serially diluted 1 to 3 and 1 to 10 in DMSO to seven concentrations with the eighth concentration being DMSO. A 10-fold dilution was prepared by mixing 10 μL of the DMSO dilution with 90 μL of fresh growing medium. […] Pre-sown cells were taken out from incubator and the medium was removed. To each well, 180 μL inducing medium was added and followed immediately with 20 μL of testing or reference compound dilutions. The testing compound concentrations are between 10 μM and 1 nM. The cells were then return to CO2 incubator to grow additional 5 days at 37° C.
(§1) After incubating for 5 days, the cells were taken out and intracellular alkaline phosphatase activity was tested. The alkaline phosphatase activity was measured as follows:
1) Preparation of Substrate Solution:
(§2) Solution A: A 0.5 mM MgCl2 (Sigma Prod. No. M-0250) solution was prepared.
(§3) After the pH value was adjusted to 9.8 with 5 M HCl at 37° C., the total volume was adjusted to 100 mL.
(§4) After it is completely dissolved the total volume was adjusted to 10 mL with the final concentration being 1 mM.
Substrate reaction medium: To 10 mL of solution B, 250 μL of solution A and 200 μL of solution C were added, and mixed well.
2) the Measurement of Intracellular Alkaline Phosphatase Activity:
(§5) After taking out the cells from the incubator, the cell culture medium was removed and cells were washed twice with PBS. 20 μL of lysis solution (0.2% Triton solution) was added to each well. After being shaken for 30 min at room temperature, each well of cells received 80 μL of substrate reaction medium. The microplate was placed immediately into a VariSkan Flashplate reader and absorbance at OD405 was read as background reading. The plate was replaced back to cell culture incubator at 37° C. for additional 30 min and the absorbance was read again using VariSkan Flash plate reader at OD405.
The data were analyzed by subtracting the background reading from the reading at 30 min, and the obtained numbers were plotted and analyzed with Prism 5 software (GraphPad). The phosphatase activity (calculated OD405) was plotted against the log concentration of testing compound, and the obtained plot was fitted with non-linear curve fitting equation to calculate IC50 values. The curve fitting equation is Y=Bottom+(Top−Bottom)/(1+10^((X−Log IC50))). X is the logarithm of concentration. Y is the measure of alkaline phosphatase activity (OD405).
(§6) The calculated IC50 value is a measurement of the inhibitory activity of compound to Hh pathway.

Test [2] relates to Hedgehog Signaling Pathway. Briefly: SHH-induced differentiation of C3H10T1/2 cells into osteoblastic cells, intracellular alkaline phosphatase activity. Format: cell-based, mouse. Conditions: Mus musculus, C3H 10T1/2, 120 h, 10 nM SHH-N, 5 days, alkaline phosphatase activity (OD405), read-out: IC50 values of compounds that inhibit Hh pathway. The procedure:
The Application of SHH to Induce Pluripotent Mesenchymal Mouse Embryonic Cell C3H10T1/2 to Differentiate into Osteoblastic Cells for the Determination of the Inhibitory Activity of N-(3-(1H-benzo[d]imidazol-2-yl)-4-chlorophenyl)-2-methyl-4-((2S,6R)-2,6-dimethylmorpholino)benzamide and Analogs on Hedgehog Signaling Pathway
The C3H10T1/2 cells were grown in DMEM medium supplemented with 10% fetal bovine serum (FBS, Hyclone) at 37° C. with 5% CO2. 10000 cells were sown to each well of a 96-well microplate a day before the experiment and grown overnight. […] The reference compound and testing compounds were serially diluted 1 to 3 and 1 to 10 in DMSO to seven concentrations with the eighth concentration being DMSO. A 10-fold dilution was prepared by mixing 10 μL of the DMSO dilutions with 90 μL of fresh growing medium. Pre-sown cells were taken out from incubator and the medium was removed. To each well, 180 μL of inducing medium containing 10 nM of SHH-N was added and followed immediately with 20 μL of 10× testing or reference compound dilutions. The testing compound concentrations are between 10 μM and 10 nM. The cells were then returned to CO2 incubator to grow additional 5 days at 37° C.
as §1
3) Preparation of Substrate Solution:
as §2, §3, §4
Substrate reaction medium: to 10 mL of solution B, 250 μL of solution A and 200 μL of solution C were added, and mixed well.
4) The Measurement of Intracellular Alkaline Phosphatase Activity:
as §5
The data were analyzed by subtracting the background reading from the reading at 30 min, and the obtained numbers were plotted and analyzed with Prism 5 software (GraphPad). The phosphatase activity (calculated OD405) was plotted against the log concentration of testing compound, and the obtained plot was fitted with non-linear curve fitting equation to calculate IC50 values. The curve fitting equation is Y=Bottom+(Top−Bottom)/(1+10^(X−Log IC50)). X is the logarithm of concentration. Y is the measure of alkaline phosphatase activity (OD405).
as §6

By IC50 is commonly meant the concentration that gives 50% inhibition. Regarding `O=C1c2ccc(-c3ccccc3)cc2CCN1c1ccc(Cl)c(-c2nc3ccccc3[nH]2)c1` [Example 29, 2-(3-(1H-benzo[d]imidazol-2-yl)-4-chlorophenyl)-6-phenyl-3,4-dihydroisoquinolin-1(2H)-one], the IC50 in test [1] was > 10000 nM; in test [2] it was 72 nM.
Regarding `Cc1cc(N2CCOCC2)ccc1C(=O)Nc1ccc(Cl)c(-c2nc3ccccc3[nH]2)c1` [Example 30, N-(3-(1H-benzo[d]imidazol-2-yl)-4-chlorophenyl)-2-methyl-4-morpholinobenzamide], the values for the IC50 in test [1] and in test [2] were 88 nM and 31 nM, respectively.
Turning to `Cc1cc(N2CCCCC2)ccc1C(=O)Nc1ccc(Cl)c(-c2nc3ccccc3[nH]2)c1` [Example 31, N-(3-(1H-benzo[d]imidazol-2-yl)-4-chlorophenyl)-2-methyl-4-(piperidin-1-yl)benzamide], the results for the IC50 in test [1] and in test [2] were 229 nM and 44 nM, respectively.
Regarding `C[C@@H]1CN(c2ccc(C(=O)Nc3ccc(Cl)c(-c4nc5ccccc5[nH]4)c3)c(N)c2)C[C@H](C)O1` [Example 33, N-(3-(1H-benzo[d]imidazol-2-yl)-4-chlorophenyl)-2-amino-4-((2S,6R)-2,6-dimethylmorpholino)benzamide], the IC50 in test [1] turned out to be 83 nM; in test [2], 22 nM.
Take `C[C@@H]1CN(c2ccc3c(=O)n(-c4ccc(Cl)c(-c5nc6ccccc6[nH]5)c4)cnc3c2)C[C@H](C)O1` [Example 34, 3-(3-(1H-benzo[d]imidazol-2-yl)-4-chlorophenyl)-7-((2S,6R)-2,6-dimethylmorpholino)quinazolin-4(3H)-one]: the IC50 was 263 nM in test [1] and 162 nM in test [2].
As for `C[C@@H]1CN(c2cc(Cl)c(C(=O)Nc3ccc(Cl)c(-c4nc5ccccc5[nH]4)c3)cn2)C[C@H](C)O1` [Example 36, N-(3-(1H-benzo[d]imidazol-2-yl)-4-chlorophenyl)-4-chloro-6-((2S,6R)-2,6-dimethylmorpholino)nicotinamide], the results for the IC50 in test [1] and in test [2] were 362 nM and 95 nM, respectively.
As to `Cc1cc(C(=O)Nc2ccc(Cl)c(-c3nc4ccccc4[nH]3)c2)cnc1N1C[C@@H](C)O[C@@H](C)C1` [Example 37, N-(3-(1H-benzo[d]imidazol-2-yl)-4-chlorophenyl)-5-methyl-6-((2S,6R)-2,6-dimethylmorpholino)nicotinamide], the values for the IC50 in test [1] and in test [2] were 167 nM and 52 nM, respectively.
In the case of `Cc1cc(-c2cccnc2)ccc1C(=O)Nc1ccc(Cl)c(-c2nc3ccccc3[nH]2)c1` [Example 40, N-(3-(1H-benzo[d]imidazol-2-yl)-4-chlorophenyl)-2-methyl-4-(pyridin-3-yl)benzamide], the IC50 in test [1] was 27 nM; in test [2], 13 nM.
Regarding `Cc1cc(-c2ccoc2)ccc1C(=O)Nc1ccc(Cl)c(-c2nc3ccccc3[nH]2)c1` [Example 41, N-(3-(1H-benzo[d]imidazol-2-yl)-4-chlorophenyl)-2-methyl-4-(furan-3-yl)benzamide], the IC50 was 99 nM in test [1] and 32 nM in test [2].
As to `Cc1cc(-c2ccsc2)ccc1C(=O)Nc1ccc(Cl)c(-c2nc3ccccc3[nH]2)c1` [Example 42, N-(3-(1H-benzo[d]imidazol-2-yl)-4-chlorophenyl)-2-methyl-4-(thiophen-3-yl)benzamide], the 50% inhibitory concentration (IC50) in test [1] worked out at 230 nM; in test [2], 337 nM.
In the case of `O=C(Nc1ccc(Cl)c(-c2nc3ccccc3[nH]2)c1)C1CCC(c2ccccc2)CC1` (centres unmarked) [Example 44, N-(3-(1H-benzo[d]imidazol-2-yl)-4-chlorophenyl)-4-phenylcyclohexanecarboxamide], the IC50 in test [1] came out at 139 nM; in test [2], 18 nM.
As for `Cc1cc(-c2ccc(C(F)(F)F)cc2)ccc1C(=O)Nc1cccc(-c2nc3ccccc3[nH]2)c1` [Example 45, N-(3-(1H-benzo[d]imidazol-2-yl)phenyl)-3-methyl-4′-(trifluoromethyl)biphenyl-4-carboxamide], the IC50 was found to be 284 nM in test [1] and 20 nM in test [2].
Take `Cc1cc(-c2ccc(C(F)(F)F)cc2)ccc1C(=O)N(C)c1ccc(Cl)c(-c2nc3ccccc3[nH]2)c1` [Example 48, N-(3-(1H-benzo[d]imidazol-2-yl)-4-chlorophenyl)-N,3-dimethyl-4′-(trifluoromethyl)biphenyl-4-carboxamide]: the IC50 in test [1] and in test [2] was > 10000 nM in each case.
For the molecule `Cc1cc(-c2ccc(C(F)(F)F)cc2)ccc1C(=O)Nc1ccc(Cl)c(-c2ncc(-c3cccnc3)[nH]2)c1` [Example 51, N-(3-(5-(pyridin-3-yl)-1H-imidazol-2-yl)-4-chlorophenyl)-3-methyl-4′-(trifluoromethyl)biphenyl-4-carboxamide], the figures for the IC50 in test [1] and in test [2] were > 10000 nM and 77 nM, respectively.
For `Cc1cc(-c2ccc(C(F)(F)F)cc2)ccc1C(=O)Nc1ccc(Cl)c(-c2nnc3ccccn23)c1` [Example 52, N-(3-([1,2,4]triazolo[4,3-a]pyridin-3-yl)-4-chlorophenyl)-3-methyl-4′-(trifluoromethyl)biphenyl-4-carboxamide], the values for the IC50 in test [1] and in test [2] were 740 nM and 465 nM, respectively.
For `Cc1cc(-c2ccc(C(F)(F)F)cc2)ccc1C(=O)Nc1ccc(Cl)c(-c2nnc3ncccn23)c1` [Example 53, N-(3-([1,2,4]triazolo[4,3-a]pyrimidin-3-yl)-4-chlorophenyl)-3-methyl-4′-(trifluoromethyl)biphenyl-4-carboxamide], the IC50 in test [1] and in test [2] was > 10000 nM in each case.
In the case of `Cc1cc(-c2ccc(C(F)(F)F)cc2)ccc1C(=O)Nc1ccc(Cl)c(-c2nnc3cnccn23)c1` [Example 54, N-(3-([1,2,4]triazolo[4,3-a]pyrazin-3-yl)-4-chlorophenyl)-3-methyl-4′-(trifluoromethyl)biphenyl-4-carboxamide], the IC50 in test [1] and in test [2] was > 10000 nM throughout.
Regarding `Cc1cc(-c2ccc(C(F)(F)F)cc2)ccc1C(=O)Nc1cccc(-c2cn3cccnc3n2)c1` [Example 55, N-(3-(imidazo[1,2-a]pyrimidin-2-yl)phenyl)-3-methyl-4′-(trifluoromethyl)biphenyl-4-carboxamide], the IC50 in test [1] and in test [2] was > 10000 nM throughout.
For the molecule `Cc1cc(-c2ccc(C(F)(F)F)cc2)ccc1C(=O)Nc1cccc(-c2cn3ccccc3n2)c1` [Example 56, N-(3-(imidazo[1,2-a]pyridin-2-yl)phenyl)-3-methyl-4′-(trifluoromethyl)biphenyl-4-carboxamide], the values for the IC50 in test [1] and in test [2] were 2370 nM and 189 nM, respectively.
